Source: PubChem BioAssay AID2060330 (Molecular Pharmacology Branch, DTP, NCI, 2025)
Where “and” joins values, the source holds several entries; their conditions need not be identical. Equal entries are not always repeated.

Tested on: LG0703-F948-PDC spheroids with HUVEC/MSC, viability
Assay: Anticancer human tumor LG0703-F948-PDC patient-derived lung adenocarcinoma cell line growth inhibition [IpAb]
Conditions: for viability, T/C: stronger effect = lower value
Outline: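 Combinations with ipatasertib or abemaciclib were tested on tumour spheroids holding HUVEC (25%) and MSC (15%) alongside 60% malignant cells. Top concentration was at or near clinical Cmax (10 microM if undefined), descending in half-log steps.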

[1] = curve of first compound, second compound 0.01 µM
[2] = curve of first compound, second compound 0.0316 µM
[3] = curve of first compound, second compound 0.1 µM
[4] = curve of first compound, second compound 0.316 µM
[5] = curve of first compound, second compound 1 µM
[6] = second compound 0.1 µM, first compound 0.00949 µM
[7] = second compound 0.1 µM, first compound 0.03 µM
[8] = second compound 0.1 µM, first compound 0.0949 µM
[9] = second compound 0.1 µM, first compound 0.3 µM
[10] = second compound 0.1 µM, first compound 0.949 µM
[11] = second compound 0.1 µM, first compound 3 µM
[12] = second compound 0.316 µM, first compound 0.00949 µM
[13] = second compound 0.316 µM, first compound 0.03 µM
[14] = second compound 0.316 µM, first compound 0.0949 µM
[15] = second compound 0.316 µM, first compound 0.3 µM
[16] = second compound 0.316 µM, first compound 0.949 µM
[17] = second compound 0.316 µM, first compound 3 µM
[18] = second compound 1 µM, first compound 0.00949 µM
[19] = second compound 1 µM, first compound 0.03 µM
[20] = second compound 1 µM, first compound 0.0949 µM
[21] = second compound 1 µM, first compound 0.3 µM
[22] = second compound 1 µM, first compound 0.949 µM
[23] = second compound 1 µM, first compound 3 µM
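Further: spheroids exposed to compounds for seven days before readout.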
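Wherever viability, T/C is given: T/C percent relative to DMSO vehicle wells set as 100% viability.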

C=CC(=O)N1CCN(c2nc(=O)n(-c3c(C)ccnc3C(C)C)c3nc(-c4c(O)cccc4F)c(F)cc23)C(C)C1 (configuration not stated) + CCN1CCN(Cc2ccc(Nc3ncc(F)c(-c4cc(F)c5nc(C)n(C(C)C)c5c4)n3)nc2)CC1
IC50 [1]: > 10000 nM
IC50 [2]: > 10000 nM
IC50 [3]: > 10000 nM
IC50 [4]: > 10000 nM
IC50 [5]: > 10000 nM
viability, T/C (second compound 0.01 µM, first compound 0.0316 µM): 110%
viability, T/C (second compound 0.01 µM, first compound 0.1 µM): 110%
viability, T/C (second compound 0.01 µM, first compound 0.316 µM): 107%
viability, T/C (second compound 0.01 µM, first compound 1 µM): 121%
viability, T/C (second compound 0.01 µM, first compound 3.16 µM): 111%
viability, T/C (second compound 0.01 µM, first compound 10 µM): 79.5%
viability, T/C (second compound 0.0316 µM, first compound 0.0316 µM): 95.5%
viability, T/C (second compound 0.0316 µM, first compound 0.1 µM): 92%
viability, T/C (second compound 0.0316 µM, first compound 0.316 µM): 94.2%
viability, T/C (second compound 0.0316 µM, first compound 1 µM): 104%
viability, T/C (second compound 0.0316 µM, first compound 3.16 µM): 99.2%
viability, T/C (second compound 0.0316 µM, first compound 10 µM): 75.9%
viability, T/C (second compound 0.1 µM, first compound 0.0316 µM): 86.6%
viability, T/C (second compound 0.1 µM, first compound 0.1 µM): 95.5%
viability, T/C (second compound 0.1 µM, first compound 0.316 µM): 91.2%
viability, T/C (second compound 0.1 µM, first compound 1 µM): 94.5%
viability, T/C (second compound 0.1 µM, first compound 3.16 µM): 91.8%
viability, T/C (second compound 0.1 µM, first compound 10 µM): 73%
viability, T/C (second compound 0.316 µM, first compound 0.0316 µM): 88.1%
viability, T/C (second compound 0.316 µM, first compound 0.1 µM): 85.6%
viability, T/C (second compound 0.316 µM, first compound 0.316 µM): 82.3%
viability, T/C (second compound 0.316 µM, first compound 1 µM): 97.7%
viability, T/C (second compound 0.316 µM, first compound 3.16 µM): 95.6%
viability, T/C (second compound 0.316 µM, first compound 10 µM): 79.6%
viability, T/C (second compound 1 µM, first compound 0.0316 µM): 89.8%
viability, T/C (second compound 1 µM, first compound 0.1 µM): 82.9%
viability, T/C (second compound 1 µM, first compound 0.316 µM): 46.8%
viability, T/C (second compound 1 µM, first compound 1 µM): 96.6%
viability, T/C (second compound 1 µM, first compound 3.16 µM): 95.7%
viability, T/C (second compound 1 µM, first compound 10 µM): 73.1%

CCCS(=O)(=O)Nc1ccc(F)c(C(=O)c2c[nH]c3ncc(-c4ccc(Cl)cc4)cc23)c1F
viability, T/C (compound 0.0316 µM): 98.2% and 112%
viability, T/C (compound 0.1 µM): 99.7% and 110%
viability, T/C (compound 0.316 µM): 91.5% and 92.6%
viability, T/C (compound 1 µM): 105% and 111%
viability, T/C (compound 3.16 µM): 98.9% and 101%
viability, T/C (compound 10 µM): 76.2% and 71.7%
IC50 (curve of compound): > 10000 nM

CC(C)(C)c1cnc(CSc2cnc(NC(=O)C3CCNCC3)s2)o1 + CCN1CCN(Cc2ccc(Nc3ncc(F)c(-c4cc(F)c5nc(C)n(C(C)C)c5c4)n3)nc2)CC1
IC50 [1]: 77 nM
IC50 [2]: 50.9 nM
IC50 [3]: 51.7 nM
IC50 [4]: 39.4 nM
IC50 [5]: 31.9 nM
viability, T/C (second compound 0.01 µM, first compound 0.00949 µM): 98.5%
viability, T/C (second compound 0.01 µM, first compound 0.03 µM): 86%
viability, T/C (second compound 0.01 µM, first compound 0.0949 µM): 43%
viability, T/C (second compound 0.01 µM, first compound 0.3 µM): 0.52%
viability, T/C (second compound 0.01 µM, first compound 0.949 µM): 0.27%
viability, T/C (second compound 0.01 µM, first compound 3 µM): 0.36%
viability, T/C (second compound 0.0316 µM, first compound 0.00949 µM): 79.2%
viability, T/C (second compound 0.0316 µM, first compound 0.03 µM): 67.3%
viability, T/C (second compound 0.0316 µM, first compound 0.0949 µM): 29.3%
viability, T/C (second compound 0.0316 µM, first compound 0.3 µM): 0.36%
viability, T/C (second compound 0.0316 µM, first compound 0.949 µM): 0.13%
viability, T/C (second compound 0.0316 µM, first compound 3 µM): 0.27%
viability, T/C [6]: 74.1%
viability, T/C [7]: 71.5%
viability, T/C [8]: 25.9%
viability, T/C [9]: 0.39%
viability, T/C [10]: 0.19%
viability, T/C [11]: 0.29%
viability, T/C [12]: 76.2%
viability, T/C [13]: 62%
viability, T/C [14]: 11.2%
viability, T/C [15]: 0.34%
viability, T/C [16]: 0.2%
viability, T/C [17]: 0.3%
viability, T/C [18]: 77.1%
viability, T/C [19]: 48.5%
viability, T/C [20]: 29.2%
viability, T/C [21]: 0.4%
viability, T/C [22]: 0.41%
viability, T/C [23]: 0.31%

CC(C)(C)c1cnc(CSc2cnc(NC(=O)C3CCNCC3)s2)o1 + CC(C)NCC(C(=O)N1CCN(c2ncnc3c2C(C)CC3O)CC1)c1ccc(Cl)cc1
IC50 [3]: 74.3 nM
IC50 [4]: 36.9 nM
IC50 [5]: 15.5 nM
IC50 (curve of first compound, second compound 3.16 µM): < 9.49 nM
IC50 (curve of first compound, second compound 10 µM): < 9.49 nM
viability, T/C [6]: 78.5%
viability, T/C [7]: 74%
viability, T/C [8]: 43.3%
viability, T/C [9]: 0.48%
viability, T/C [10]: 0.41%
viability, T/C [11]: 0.23%
viability, T/C [12]: 61.5%
viability, T/C [13]: 51.2%
viability, T/C [14]: 30.8%
viability, T/C [15]: 0.34%
viability, T/C [16]: 0.3%
viability, T/C [17]: 0.29%
viability, T/C [18]: 52%
viability, T/C [19]: 47.5%
viability, T/C [20]: 24.2%
viability, T/C [21]: 0.43%
viability, T/C [22]: 0.34%
viability, T/C [23]: 0.31%
viability, T/C (second compound 3.16 µM, first compound 0.00949 µM): 44.7%
viability, T/C (second compound 3.16 µM, first compound 0.03 µM): 37.4%
viability, T/C (second compound 3.16 µM, first compound 0.0949 µM): 15.4%
viability, T/C (second compound 3.16 µM, first compound 0.3 µM): 0.55%
viability, T/C (second compound 3.16 µM, first compound 0.949 µM): 1.3%
viability, T/C (second compound 3.16 µM, first compound 3 µM): 0.69%
viability, T/C (second compound 10 µM, first compound 0.00949 µM): 35.1%
viability, T/C (second compound 10 µM, first compound 0.03 µM): 31.5%
viability, T/C (second compound 10 µM, first compound 0.0949 µM): 28.2%
viability, T/C (second compound 10 µM, first compound 0.3 µM): 1.21%
viability, T/C (second compound 10 µM, first compound 0.949 µM): 0.81%
viability, T/C (second compound 10 µM, first compound 3 µM): 0.34%
